CC50, Ki and EC50 data for 49 compounds are collected here from ChEMBL document CHEMBL1128456, “Synthesis and biological evaluation of N6-cycloalkyl derivatives of 1-deazaadenine nucleosides: a new class of anti-human immunodeficiency virus agents” (J Med Chem, 1995).

A short description of data set [1]: In vitro evaluation of cytotoxicity in C8166 cells infected with HIV-1 IIIB. It is filed as cell-based. Conditions: human, read-out: TC50 (the source's name).
For another data set, the target named is T1, Adenosine deaminase (Bos taurus, UniProt P56658).
T1 sequence (P56658 whole entry): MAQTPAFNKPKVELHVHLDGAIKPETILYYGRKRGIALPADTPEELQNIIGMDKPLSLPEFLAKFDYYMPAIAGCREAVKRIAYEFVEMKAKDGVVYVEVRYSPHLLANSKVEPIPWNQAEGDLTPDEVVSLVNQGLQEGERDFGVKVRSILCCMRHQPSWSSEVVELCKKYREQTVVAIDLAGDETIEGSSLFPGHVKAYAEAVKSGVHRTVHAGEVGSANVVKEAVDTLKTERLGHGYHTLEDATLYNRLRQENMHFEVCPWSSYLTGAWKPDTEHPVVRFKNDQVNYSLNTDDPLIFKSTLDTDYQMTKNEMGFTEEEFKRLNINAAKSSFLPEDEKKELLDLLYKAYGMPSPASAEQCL
The experiment in a line: Inhibition calf intestine adenosine deaminase.

The subject of data set [2] is Human immunodeficiency virus 1. Description: In vitro evaluation of anti-HIV-1 activity in C8166 cells infected with HIV-1 IIIB. It is filed as functional. Particulars: Human immunodeficiency virus 1, C8166; read-out: ED50 (the source's name).

In the case of `OC[C@H]1O[C@@H](n2cnc3c(NC4CCCCCCC4)cc(Cl)nc32)C[C@@H]1O`, the CC50 in data set [1] came out at 40 µM. In addition, at Adenosine deaminase, the Ki (as a rule, the equilibrium dissociation constant of an inhibitor or competing ligand from its target) is above 100 µM. Moreover, in data set [2], the EC50 came out at 2 µM.
The like results for `CNc1ccnc2c1ncn2C1O[C@H](CO)[C@@H](O)[C@H]1O` (stereo partly specified) were, in that order, above 100 µM, 12 µM and above 100 µM.
`CNc1cc(Cl)nc2c1ncn2C1O[C@H](CO)[C@@H](O)[C@H]1O` (stereo partly specified): the CC50 in data set [1] is above 100 µM. The affinity on Adenosine deaminase, expressed as Ki, was 69 µM. Also, the EC50 in data set [2] is above 100 µM.
Regarding `OCC1CCC(n2cnc3c(NC4CCCCC4)cc(Cl)nc32)O1` (stereo unspecified), in data set [1], the CC50 was 20 µM. At Adenosine deaminase, the inhibition constant (Ki) was above 100 µM. The EC50 in data set [2] is 4 µM.
As to `Nc1cc(Cl)nc2c1ncn2C1CCC(CO)O1` (stereo unspecified), in data set [1], the CC50 was above 100 µM. The same compound gave an inhibition constant (Ki) at Adenosine deaminase above 100 µM. Also, the EC50 in data set [2] is above 100 µM.
Take `OCC1CCC(n2cnc3c(NC4CCCCCC4)ccnc32)O1` (stereo unspecified): the CC50 in data set [1] was 40 µM. For the same compound, the affinity on Adenosine deaminase corresponds to a Ki of 53 µM. Further, the EC50 in data set [2] is 8 µM.
The matching figures for `OC[C@H]1O[C@@H](n2cnc3c(NC4CCCCC4)cc(Cl)nc32)[C@H](O)[C@@H]1O`: 50 µM, above 100 µM and 20 µM.
Regarding `OC[C@H]1OC(n2cnc3c(NC4CCCCCCC4)ccnc32)[C@H](O)[C@@H]1O` (stereo partly specified), the CC50 in data set [1] was 50 µM. In addition, the Ki at Adenosine deaminase was determined as 80 µM. For the same compound, the EC50 in data set [2] stood at 4 µM.
Turning to `Nc1ccnc2c1ncn2C1CCC(CO)O1` (stereo unspecified), the CC50 in data set [1] was above 100 µM. The compound further gave a Ki on Adenosine deaminase of 2.5 µM. Further, in data set [2], the EC50 is above 100 µM.
With `OCC1CCC(n2cnc3c(NC4CCCCCC4)cc(Cl)nc32)O1` (stereo unspecified), in data set [1], the CC50 amounted to 8 µM. This compound came in with an inhibition constant Ki at Adenosine deaminase above 100 µM. Also, the EC50 in data set [2] was determined as 0.8 µM.
The like results for `OC[C@H]1O[C@@H](n2cnc3c(NC4CCCCC4)ccnc32)[C@H](O)[C@@H]1O` were, in that order, 400 µM, above 100 µM and 100 µM.
The matching figures for `OCC1CCC(n2cnc3c(NC4CCC4)cc(Cl)nc32)O1` (stereo unspecified): 250 µM, above 100 µM and 4 µM.
For `OC[C@H]1O[C@@H](n2cnc3c(NC4CCC4)cc(Cl)nc32)[C@H](O)[C@@H]1O`, the CC50 in data set [1] came out at 400 µM. This compound also returned an inhibition constant (Ki) on Adenosine deaminase of 97 µM. Further, in data set [2], the EC50 worked out at 100 µM.
The matching figures for `Nc1cc(Cl)nc2c1ncn2[C@H]1C[C@H](O)[C@@H](CO)O1`: above 100 µM, 23 µM and above 100 µM.
For `OCC1CCC(n2cnc3c(NC4CCCCCCC4)cc(Cl)nc32)O1` (stereo unspecified), in data set [1], the CC50 stood at 10 µM. This compound returned an inhibitory constant (Ki) on Adenosine deaminase above 100 µM. Moreover, the EC50 in data set [2] worked out at 0.4 µM.
The matching figures for `OC[C@H]1O[C@@H](n2cnc3c(NC4CC4)ccnc32)C[C@@H]1O`: above 100 µM, 50 µM and above 100 µM.
The matching figures for `OC[C@H]1O[C@@H](n2cnc3c(NC4CCCC4)cc(Cl)nc32)[C@H](O)[C@@H]1O`: 100 µM, above 100 µM and 10 µM.
Turning to `CNc1ccnc2c1ncn2C1CCC(CO)O1` (stereo unspecified), the CC50 in data set [1] was found to be 100 µM. The Ki at Adenosine deaminase turned out to be 2.2 µM. Further, the EC50 in data set [2] is 50 µM.
Regarding `OC[C@H]1O[C@@H](n2cnc3c(NC4CC4)cc(Cl)nc32)[C@H](O)[C@@H]1O`, the CC50 in data set [1] turned out to be 500 µM. In addition, the Ki on Adenosine deaminase was above 100 µM. Besides, the EC50 in data set [2] was 30 µM.
The matching figures for `OC[C@H]1O[C@@H](n2cnc3c(NC4CCC4)cc(Cl)nc32)C[C@@H]1O`: 400 µM, above 100 µM and 4 µM.
For the compound `Nc1cc(Cl)nc2c1ncn2[C@@H]1O[C@H](CO)[C@@H](O)[C@H]1O`, the CC50 in data set [1] is above 100 µM. Besides, the Ki on Adenosine deaminase stood at 30 µM. Moreover, the EC50 in data set [2] is above 100 µM.
Turning to `CNc1cc(Cl)nc2c1ncn2[C@H]1C[C@H](O)[C@@H](CO)O1`, in data set [1], the CC50 is above 100 µM. This compound also returned a Ki at Adenosine deaminase of 4.2 µM. The EC50 in data set [2] was above 100 µM.
`CNc1ccnc2c1ncn2[C@H]1C[C@H](O)[C@@H](CO)O1`: the CC50 in data set [1] is above 100 µM. At Adenosine deaminase, this compound showed a Ki of 0.25 µM. Moreover, the EC50 in data set [2] was above 100 µM.
Turning to `OC[C@H]1O[C@@H](n2cnc3c(NC4CCCC4)ccnc32)C[C@@H]1O`, the CC50 in data set [1] turned out to be 400 µM. Also, the Ki at Adenosine deaminase came out at 22 µM. Moreover, the EC50 in data set [2] came out at 40 µM.
The matching figures for `OC[C@H]1O[C@@H](n2cnc3c(NC4CC4)ccnc32)[C@H](O)[C@@H]1O`: above 100 µM, 38 µM and above 100 µM.
`OC[C@H]1OC(n2cnc3c(NC4CCCCCC4)ccnc32)[C@H](O)[C@@H]1O` (stereo partly specified): the CC50 in data set [1] was determined as 100 µM. Also, the Ki at Adenosine deaminase is above 100 µM. Also, the EC50 in data set [2] amounted to 20 µM.
`OCC1CCC(n2cnc3c(NC4CCC4)ccnc32)O1` (stereo unspecified): the CC50 in data set [1] stood at 400 µM. This compound also displayed an inhibitory constant (Ki) on Adenosine deaminase of 92 µM. In addition, the EC50 in data set [2] turned out to be 50 µM.
Take `OCC1CCC(n2cnc3c(NC4CCCC4)cc(Cl)nc32)O1` (stereo unspecified): the CC50 in data set [1] came out at 50 µM. The compound further had a Ki on Adenosine deaminase above 100 µM. In data set [2], the EC50 came to 20 µM.
On to `OC[C@H]1O[C@@H](n2cnc3c(NC4CCCCCC4)cc(Cl)nc32)C[C@@H]1O`, for which the CC50 in data set [1] amounted to 5 µM. The compound further displayed a Ki at Adenosine deaminase above 100 µM. Besides, the EC50 in data set [2] came to 0.2 µM.
`OCC1CCC(n2cnc3c(NC4CCCCCCC4)ccnc32)O1` (stereo unspecified): the CC50 in data set [1] is 10 µM. At Adenosine deaminase, this compound came in with an inhibition constant Ki above 100 µM. The EC50 in data set [2] worked out at 0.8 µM.
As to `OC[C@H]1O[C@@H](n2cnc3c(NC4CCC4)ccnc32)[C@H](O)[C@@H]1O`, the CC50 in data set [1] was above 100 µM. Further, the affinity on Adenosine deaminase, expressed as Ki, was 100 µM. Besides, the EC50 in data set [2] is above 100 µM.
Turning to `Nc1ccnc2c1ncn2[C@@H]1O[C@H](CO)[C@@H](O)[C@H]1O`, in data set [1], the CC50 amounted to 2 µM. The same compound returned an inhibitory constant (Ki) on Adenosine deaminase of 0.38 µM. Besides, in data set [2], the EC50 is above 100 µM.
The like results for `Nc1ccnc2c1ncn2[C@H]1C[C@H](O)[C@@H](CO)O1` were, in that order, above 100 µM, 0.19 µM and above 100 µM.
Consider `OCC1CCC(n2cnc3c(NC4CC4)ccnc32)O1` (stereo unspecified), for which the CC50 in data set [1] was found to be 750 µM. Besides, the inhibition constant (Ki) on Adenosine deaminase came to 78 µM. In data set [2], the EC50 is 100 µM.
The matching figures for `OC[C@H]1O[C@@H](n2cnc3c(NC4CCCCCC4)ccnc32)C[C@@H]1O`: 80 µM, 42 µM and 30 µM.
The matching figures for `OC[C@H]1O[C@@H](n2cnc3c(NC4CCCCC4)cc(Cl)nc32)C[C@@H]1O`: 100 µM, above 100 µM and 4 µM.
The like results for `OCC1CCC(n2cnc3c(NC4CC4)cc(Cl)nc32)O1` (stereo unspecified) were, in that order, above 100 µM, above 100 µM and above 100 µM.
With `OCC1CCC(n2cnc3c(NC4CCCC4)ccnc32)O1` (stereo unspecified), in data set [1], the CC50 stood at 500 µM. The Ki at Adenosine deaminase was above 100 µM. The EC50 in data set [2] was 80 µM.
As for `OC[C@H]1OC(n2cnc3c(NC4CCCCCCC4)cc(Cl)nc32)[C@H](O)[C@@H]1O` (stereo partly specified), in data set [1], the CC50 stood at 40 µM. Also, the Ki on Adenosine deaminase amounted to 71 µM. Besides, the EC50 in data set [2] came to 2 µM.
On to `CNc1cc(Cl)nc2c1ncn2C1CCC(CO)O1` (stereo unspecified), for which the CC50 in data set [1] is above 100 µM. In addition, on Adenosine deaminase, the inhibition constant Ki was determined as 11 µM. Moreover, the EC50 in data set [2] was above 100 µM.
As to `OC[C@H]1O[C@@H](n2cnc3c(NC4CCC4)ccnc32)C[C@@H]1O`, the CC50 in data set [1] was 400 µM. Besides, the inhibitory constant (Ki) at Adenosine deaminase amounted to 97 µM. In data set [2], the EC50 was determined as 20 µM.
In the case of `Nc1ncnc2c1ncn2[C@H]1CC[C@@H](CO)O1`, the CC50 in data set [1] is above 100 µM. For the same compound, the EC50 in data set [2] amounted to 2 µM.
Take `OC[C@H]1O[C@@H](n2cnc3c(NC4CCCC4)cc(Cl)nc32)C[C@@H]1O`: in data set [1], the CC50 is 7 µM. Moreover, on Adenosine deaminase, the inhibitory constant (Ki) is above 100 µM. In data set [2], the EC50 amounted to 0.8 µM.
The like results for `OC[C@H]1O[C@@H](n2cnc3c(NC4CC4)cc(Cl)nc32)C[C@@H]1O` were, in that order, 500 µM, 75 µM and 8 µM.
Turning to `OC[C@H]1O[C@@H](n2cnc3c(NC4CCCCCCC4)ccnc32)C[C@@H]1O`, in data set [1], the CC50 came out at 40 µM. This compound also gave a Ki on Adenosine deaminase of 59 µM. Moreover, the EC50 in data set [2] is 4 µM.
As to `OC[C@H]1O[C@@H](n2cnc3c(NC4CCCCC4)ccnc32)C[C@@H]1O`, in data set [1], the CC50 is 100 µM. The Ki on Adenosine deaminase is above 100 µM. For the same compound, the EC50 in data set [2] is 8 µM.
For `OC[C@H]1O[C@@H](n2cnc3c(NC4CCCC4)ccnc32)[C@H](O)[C@@H]1O`, in data set [1], the CC50 amounted to 400 µM. Moreover, the Ki on Adenosine deaminase is above 100 µM. Moreover, the EC50 in data set [2] worked out at 16 µM.
The like results for `OC[C@H]1OC(n2cnc3c(NC4CCCCCC4)cc(Cl)nc32)[C@H](O)[C@@H]1O` (stereo partly specified) were, in that order, 50 µM, above 100 µM and 8 µM.
On to `OCC1CCC(n2cnc3c(NC4CCCCC4)ccnc32)O1` (stereo unspecified), for which, in data set [1], the CC50 stood at 50 µM. On Adenosine deaminase, this compound had a Ki of 69 µM. Moreover, the EC50 in data set [2] came to 40 µM.
